# Results published in patent US20160081978A1, “PHARMACEUTICAL COMPOSITION CONTAINING LIRIODENDRON TULIPIFERA L. EXTRACT FOR TREATING CHRONIC MYELOGENOUS LEUKEMIA” (CHO DANG PHARM. CO., LTD., priority 2013, published 2016).
# Tests used:
# Assay in all cases: XTT cell viability assay, inhibition of multiplication of leukemia cell line
# Assay type in all cases: cell-based
# [1] = system: Ba/F3 mother cell line; conditions: 1 mg/ml of CD-200, 1 μM of CD-EPT, 48 hours
# Procedure: (§1) For measuring the cell viability indicating the inhibition of multiplication, in vitro XTT assay has been employed. […] To find out the selective inhibition of T315I enzyme variant from BCR-ABL fusion gene, the cell lines have been incubated for 48 hours at 37° C. After incubation, the sample has been treated with XTT formazan (WEL GENE) for 4 hours at 37° C. Finally, the cell viability has been measured using ELISA through the absorbance at 620 nm, 540 nm (FIG. 1).
# [2] = system: Ba/F3(BCR/ABL) cell line; conditions: 1 mg/ml of CD-200, 1 μM of CD-EPT, 48 hours
# Procedure: as §1
# [3] = system: Ba/F3 (BCR/ABL-T315I) cell line
# Text: For measuring the cell viability indicating the inhibition of multiplication, in vitro XTT assay has been employed. […] Finally, the cell viability has been measured using ELISA through the absorbance at 620 nm, 540 nm (FIG. 1).
smiles,measurement,setting,value
"C=C1C(=O)O[C@@H]2/C=C(\C)CC/C=C(\C)C[C@@H](OC(C)=O)[C@@H]12 [CD-EPT, epi-tulipinolide]",inhibition of cell growth (cell viability),[1],effectively inhibit the cell growth
same,inhibition of cell growth (cell viability),[2],cannot significantly inhibit the cell growth
same,inhibition of cell growth compared to Imatinib,"[3]; 1 μM of Imatinib, 1 mg/ml of CD-200, 1 μM of CD-EPT, Ba/F3 (BCR/ABL-T315I) cell line",effective inhibition of cell growth compared to Imatinib
same,inhibition of cell growth (cell viability),"[3]; 1 mg/ml of CD-200, 1 μM of CD-EPT, 48 hours, XTT, Ba/F3 (BCR/ABL-T315I) cell line",effectively inhibit the cell growth
same,IC50,"[3]; Ba/F3 (BCR/ABL-T315I) mutant, XTT, 48 hours",800 nM
same,effective inhibition capability compared to Imatinib,"[3]; Ba/F3 (BCR/ABL-T315I) mutant, from IC50 values",5 times
